Reference: ChEMBL document CHEMBL1151757, “Synthesis, radiosynthesis, and biological evaluation of fluorine-18-labeled 2beta-carbo(fluoroalkoxy)-3beta-(3'-((Z)-2-haloethenyl)phenyl)nortropanes: candidate radioligands for in vivo imaging of the serotonin transporter with positron emission tomography” (J Med Chem, 2008)

Key:
[1] = Drug uptake in awake rhesus monkey brain caudate after 10.5 mins postinjection; format: ADME, organism-based, Macaca mulatta, Caudate nucleus; settings: in vivo, 0.175 h
[2] = Drug uptake in awake rhesus monkey brain midbrain after 55 mins postinjection; format: ADME, organism-based, Macaca mulatta; settings: in vivo
[3] = Drug uptake in awake rhesus monkey brain caudate after 85 mins postinjection; format: ADME, organism-based, Macaca mulatta, Caudate nucleus; settings: in vivo
[4] = Drug uptake in awake rhesus monkey brain caudate after 55 mins postinjection; format: ADME, organism-based, Macaca mulatta, Caudate nucleus; settings: in vivo
[5] = Drug uptake in awake rhesus monkey brain medulla after 115 mins postinjection; format: ADME, organism-based, Macaca mulatta; settings: in vivo
[6] = Drug uptake in awake rhesus monkey brain medulla after 85 mins postinjection; format: ADME, organism-based, Macaca mulatta; settings: in vivo
[7] = Drug uptake in awake rhesus monkey brain thalamus after 65 mins postinjection; format: ADME, organism-based, Macaca mulatta; settings: in vivo
[8] = Drug uptake in awake rhesus monkey brain frontal lobe after 25 mins postinjection; format: ADME, organism-based, Macaca mulatta; settings: in vivo
[9] = Drug uptake in awake rhesus monkey brain caudate after 4.5 mins postinjection; format: ADME, organism-based, Macaca mulatta, Caudate nucleus; settings: in vivo, 0.075 h
[10] = Drug uptake in awake rhesus monkey brain cerebellum after 45 mins postinjection; format: ADME, organism-based, Macaca mulatta; settings: in vivo, 0.75 h
[11] = Drug uptake in awake rhesus monkey brain pons after 75 mins postinjection; format: ADME, organism-based, Macaca mulatta; settings: in vivo, 1.25 h
[12] = Drug uptake in awake rhesus monkey brain midbrain after 7.5 mins postinjection; format: ADME, organism-based, Macaca mulatta; settings: in vivo, 0.125 h
[13] = Drug uptake in awake rhesus monkey brain cerebellum after 25 mins postinjection; format: ADME, organism-based, Macaca mulatta; settings: in vivo
[14] = Drug uptake in awake rhesus monkey brain thalamus after 95 mins postinjection; format: ADME, organism-based, Macaca mulatta; settings: in vivo
[15] = Drug uptake in awake rhesus monkey brain medulla after 95 mins postinjection; format: ADME, organism-based, Macaca mulatta; settings: in vivo
[16] = Ratio of drug uptake in frontal lobe to cerebellum in awake rhesus monkey after 35 mins postinjection; format: ADME, organism-based, Macaca mulatta; settings: in vivo
[17] = Drug uptake in awake rhesus monkey brain frontal lobe after 13.5 mins postinjection; format: ADME, organism-based, Macaca mulatta; settings: in vivo, 0.225 h
[18] = Drug uptake in awake rhesus monkey brain medulla after 55 mins postinjection; format: ADME, organism-based, Macaca mulatta; settings: in vivo
[19] = Ratio of drug uptake in pons to cerebellum in awake rhesus monkey after 10.5 mins postinjection; format: ADME, organism-based, Macaca mulatta; settings: in vivo, 0.175 h
[20] = Drug uptake in awake rhesus monkey brain midbrain after 85 mins postinjection; format: ADME, organism-based, Macaca mulatta; settings: in vivo
[21] = Drug uptake in awake rhesus monkey brain pons after 7.5 mins postinjection; format: ADME, organism-based, Macaca mulatta; settings: in vivo, 0.125 h
[22] = Drug uptake in awake rhesus monkey brain midbrain after 35 mins postinjection; format: ADME, organism-based, Macaca mulatta; settings: in vivo
[23] = Drug uptake in awake rhesus monkey brain midbrain after 105 mins postinjection; format: ADME, organism-based, Macaca mulatta; settings: in vivo, 1.75 h
[24] = Drug uptake in awake rhesus monkey brain midbrain after 25 mins postinjection; format: ADME, organism-based, Macaca mulatta; settings: in vivo
[25] = Ratio of drug uptake in midbrain to cerebellum in awake rhesus monkey after 7.5 mins postinjection; format: ADME, organism-based, Macaca mulatta; settings: in vivo, 0.125 h
[26] = Drug uptake in awake rhesus monkey brain frontal lobe after 65 mins postinjection; format: ADME, organism-based, Macaca mulatta; settings: in vivo
[27] = Drug uptake in awake rhesus monkey brain putamen after 95 mins postinjection; format: ADME, organism-based, Macaca mulatta; settings: in vivo
[28] = Drug uptake in awake rhesus monkey brain pons after 65 mins postinjection; format: ADME, organism-based, Macaca mulatta; settings: in vivo
[29] = Ratio of drug uptake in putamen to cerebellum in awake rhesus monkey after 105 mins postinjection; format: ADME, organism-based, Macaca mulatta; settings: in vivo, 1.75 h
[30] = Ratio of drug uptake in pons to cerebellum in awake rhesus monkey after 7.5 mins postinjection; format: ADME, organism-based, Macaca mulatta; settings: in vivo, 0.125 h
[31] = Drug uptake in awake rhesus monkey brain medulla after 7.5 mins postinjection; format: ADME, organism-based, Macaca mulatta; settings: in vivo, 0.125 h
[32] = Drug uptake in awake rhesus monkey brain cerebellum after 10.5 mins postinjection; format: ADME, organism-based, Macaca mulatta; settings: in vivo, 0.175 h
[33] = Drug uptake in awake rhesus monkey brain medulla after 10.5 mins postinjection; format: ADME, organism-based, Macaca mulatta; settings: in vivo, 0.175 h

Work on `O=C(OCC[18F])C1C2CCC(CC1c1ccc(/C=C\I)cc1)N2` (stereo not drawn) yielded a Drug uptake [1] of 1.73, a Drug uptake [2] of 2.76 and a Drug uptake [3] of 3.27. For the same molecule, the Drug uptake [4] was 3.11, the Drug uptake [5] was 2.57 and the Drug uptake [6] was 2.66. The Drug uptake [7] was 3.48, the Drug uptake [8] was 2.16 and the Drug uptake [9] was 1.17. It also gave a Drug uptake [10] of 1.93, a Drug uptake [11] of 2.75 and a Drug uptake [12] of 1.35. The Drug uptake [13] was 2.12, the Drug uptake [14] was 3.79 and the Drug uptake [15] was 2.35. It also gave a Ratio [16] of 1, a Drug uptake [17] of 1.57 and a Drug uptake [18] of 2.48. It also gave a Ratio [19] of 0.9, a Drug uptake [20] of 2.99 and a Drug uptake [21] of 1.24. It also gave a Drug uptake [22] of 2.7, a Drug uptake [23] of 3.24 and a Drug uptake [24] of 2.46. It also gave a Ratio [25] of 1, a Drug uptake [26] of 2.25 and a Drug uptake [27] of 3.34. For the same molecule, the Drug uptake [28] was 2.49, the Ratio [29] was 2.5 and the Ratio [30] was 0.9. It also gave a Drug uptake [31] of 1.51, a Drug uptake [32] of 1.66 and a Drug uptake [33] of 1.79.
